Assay results from patent US9302999B2, “Substituted triazoles as herbicides” (E. I. DU PONT DE NEMOURS AND COMPANY, priority 2012, dated 2016).

What was measured:
Format in all cases: in vivo
[1] = test system: bromegrass, downy (downy bromegrass, Bromus tectorum); assay: Test C pre-/postemergence: bromegrass, downy
Method in brief: (§1)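 Preemergence on seeds in loam/sand, postemergence on 2–18 cm (1–4-leaf) plants in peat-based medium; compounds in non-phytotoxic solvent with surfactant. After 13–15 days in greenhouse, visual rating versus controls, 0 (no effect) to 100 (complete control).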

[2] = test system: foxtail, green (green foxtail, Setaria viridis); assay: Test C pre-/postemergence: foxtail, green
Method in brief: as §1

[3] = test system: bermudagrass (Cynodon dactylon); assay: Test C pre-/postemergence: bermudagrass
Method in brief: as §1

[4] = test system: surinam grass (Brachiaria decumbens); assay: Test C pre-/postemergence: surinam grass
Method in brief: as §1

[5] = test system: woolly cupgrass (Eriochloa villosa); assay: Test C pre-/postemergence: woolly cupgrass
Method in brief: as §1

[6] = test system: goosegrass (Eleusine indica); assay: Test C pre-/postemergence: goosegrass
Method in brief: as §1

[7] = test system: nightshade (eastern black nightshade, Solanum ptycanthum); assay: Test C pre-/postemergence: nightshade; conditions: Preemergence
Method in brief: as §1

[8] = test system: common (oilseed) sunflower (Helianthus annuus); assay: Test C pre-/postemergence: sunflower; conditions: Preemergence
Method in brief: as §1

[9] = test system: canarygrass (Phalaris minor); assay: Test C postemergence: canarygrass
Method in brief: (§2)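 Crop and weed plants were grown in peat-vermiculite medium and treated postemergence at the 1- to 4-leaf stage (2-18 cm tall). After 13-15 days in a greenhouse, each species was rated visually against untreated controls on a 0-100 scale (0 no effect, 100 complete control).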

[10] = test system: windgrass (Apera spica-venti); assay: Test C postemergence: windgrass
Method in brief: as §2

[11] = test system: deadnettle (henbit deadnettle, Lamium amplexicaule); assay: Test C postemergence: deadnettle
Method in brief: as §2

[12] = Postemergence, 31 g ai/ha, scale 0 to 100 (0 no effect, 100 complete control)
[13] = Postemergence, 62 g ai/ha, scale 0 to 100 (0 no effect, 100 complete control)
[14] = Postemergence, 125 g ai/ha, scale 0 to 100, 0 no effect, 100 complete control
[15] = Postemergence, 250 g ai/ha, scale 0 to 100
[16] = Preemergence, 31 g ai/ha, scale of 0 to 100, 0 is no effect, 100 is complete control
[17] = Preemergence, 62 g ai/ha, scale 0 to 100, 0 no effect, 100 complete control
[18] = Preemergence, 125 g ai/ha, scale 0 to 100, 0 no effect, 100 complete control
[19] = Preemergence, 250 g ai/ha, scale 0 to 100, 0 no effect, 100 complete control
[20] = Preemergence, 62 g ai/ha, scale of 0 to 100, 0 is no effect, 100 is complete control
[21] = 31 g ai/ha, scale of 0 to 100, 0 is no effect, 100 is complete control
[22] = 62 g ai/ha, scale of 0 to 100, 0 is no effect, 100 is complete control
[23] = 125 g ai/ha, scale 0 to 100, 0 no effect, 100 complete control
[24] = 250 g ai/ha, scale 0 to 100, 0 no effect, 100 complete control
[25] = 31 g ai/ha, scale 0 to 100 (0 no effect, 100 complete control)
[26] = 62 g ai/ha, scale 0 to 100 (0 no effect, 100 complete control)

Fc1ccc(-n2nc(Cc3ccnc(C(F)(F)F)c3)c(OC(F)F)n2)cc1 [Compound 25]
Plant response rating, Bromegrass, Downy [1, 12]: 5 | Plant response rating, Bromegrass, Downy [1, 13]: 5 | Plant response rating, Bromegrass, Downy [1, 14]: 5 | Plant response rating, Bromegrass, Downy [1, 15]: 10 | Plant response rating, Bromegrass, Downy [1, 16]: 5 | Plant response rating, Bromegrass, Downy [1, 17]: 5 | Plant response rating, Bromegrass, Downy [1, 18]: 40 | Plant response rating, Bromegrass, Downy [1, 19]: 80 | Plant response rating, Foxtail, Green [2, 12]: 35 | Plant response rating, Foxtail, Green [2, 13]: 35 | Plant response rating, Foxtail, Green [2, 14]: 35 | Plant response rating, Foxtail, Green [2, 15]: 70 | Plant response rating, Foxtail, Green [2, 16]: 90 | Plant response rating, Foxtail, Green [2, 20]: 95 | Plant response rating, Foxtail, Green [2, 18]: 95 | Plant response rating, Foxtail, Green [2, 19]: 95 | Plant response rating, Bermudagrass [3, 12]: 15 | Plant response rating, Bermudagrass [3, 13]: 20 | Plant response rating, Bermudagrass [3, 14]: 25 | Plant response rating, Bermudagrass [3, 15]: 25 | Plant response rating, Bermudagrass [3, 16]: 85 | Plant response rating, Bermudagrass [3, 17]: 98 | Plant response rating, Bermudagrass [3, 18]: 98 | Plant response rating, Bermudagrass [3, 19]: 100 | Plant response rating, Surinam Grass [4, 12]: 10 | Plant response rating, Surinam Grass [4, 13]: 15 | Plant response rating, Surinam Grass [4, 14]: 20 | Plant response rating, Surinam Grass [4, 15]: 20 | Plant response rating, Surinam Grass [4, 16]: 15 | Plant response rating, Surinam Grass [4, 20]: 20 | Plant response rating, Surinam Grass [4, 18]: 55 | Plant response rating, Surinam Grass [4, 19]: 100 | Plant response rating, Cupgrass, Woolly [5, 12]: 25 | Plant response rating, Cupgrass, Woolly [5, 13]: 25 | Plant response rating, Cupgrass, Woolly [5, 14]: 25 | Plant response rating, Cupgrass, Woolly [5, 15]: 45 | Plant response rating, Cupgrass, Woolly [5, 16]: 20 | Plant response rating, Cupgrass, Woolly [5, 20]: 40 | Plant response rating, Cupgrass, Woolly [5, 18]: 65 | Plant response rating, Cupgrass, Woolly [5, 19]: 98 | Plant response rating, Goosegrass [6, 12]: 15 | Plant response rating, Goosegrass [6, 13]: 20 | Plant response rating, Goosegrass [6, 14]: 25 | Plant response rating, Goosegrass [6, 15]: 40 | Plant response rating, Goosegrass [6, 16]: 90 | Plant response rating, Goosegrass [6, 20]: 100 | Plant response rating, Goosegrass [6, 18]: 100 | Plant response rating, Goosegrass [6, 19]: 100 | Plant response rating, Nightshade [7, 21]: 10 | Plant response rating, Nightshade [7, 22]: 45 | Plant response rating, Nightshade [7, 23]: 95 | Plant response rating, Nightshade [7, 24]: 95 | Plant response rating, Sunflower [8, 21]: 0 | Plant response rating, Sunflower [8, 22]: 0 | Plant response rating, Sunflower [8, 23]: 0 | Plant response rating, Sunflower [8, 24]: 0 | Plant response rating, Canarygrass [9, 25]: 5 | Plant response rating, Canarygrass [9, 26]: 10 | Plant response rating, Canarygrass [9, 23]: 30 | Plant response rating, Canarygrass ([9]; 250 g ai/ha, scale 0 to 100): 55 | Plant response rating, Windgrass [10, 25]: 30 | Plant response rating, Windgrass [10, 26]: 35 | Plant response rating, Windgrass [10, 23]: 40 | Plant response rating, Windgrass ([10]; 250 g ai/ha, scale 0 to 100): 40 | Plant response rating, Deadnettle [11, 25]: 50 | Plant response rating, Deadnettle [11, 26]: 55 | Plant response rating, Deadnettle [11, 23]: 90 | Plant response rating, Deadnettle ([11]; 250 g ai/ha, scale 0 to 100): 100

FC(F)Oc1nn(-c2ccc(C(F)(F)F)cc2)nc1Cc1ccnc(C(F)(F)F)c1 [Compound 26]
Plant response rating, Bromegrass, Downy [1, 12]: 15 | Plant response rating, Bromegrass, Downy [1, 13]: 30 | Plant response rating, Bromegrass, Downy [1, 14]: 40 | Plant response rating, Bromegrass, Downy [1, 15]: 50 | Plant response rating, Bromegrass, Downy [1, 16]: 5 | Plant response rating, Bromegrass, Downy [1, 17]: 45 | Plant response rating, Bromegrass, Downy [1, 18]: 50 | Plant response rating, Bromegrass, Downy [1, 19]: 85 | Plant response rating, Foxtail, Green [2, 12]: 30 | Plant response rating, Foxtail, Green [2, 13]: 40 | Plant response rating, Foxtail, Green [2, 14]: 70 | Plant response rating, Foxtail, Green [2, 15]: 85 | Plant response rating, Foxtail, Green [2, 16]: 85 | Plant response rating, Foxtail, Green [2, 20]: 95 | Plant response rating, Foxtail, Green [2, 18]: 95 | Plant response rating, Foxtail, Green [2, 19]: 95 | Plant response rating, Bermudagrass [3, 12]: 20 | Plant response rating, Bermudagrass [3, 13]: 20 | Plant response rating, Bermudagrass [3, 14]: 30 | Plant response rating, Bermudagrass [3, 15]: 30 | Plant response rating, Bermudagrass [3, 16]: 75 | Plant response rating, Bermudagrass [3, 17]: 100 | Plant response rating, Bermudagrass [3, 18]: 100 | Plant response rating, Bermudagrass [3, 19]: 100 | Plant response rating, Surinam Grass [4, 12]: 15 | Plant response rating, Surinam Grass [4, 13]: 20 | Plant response rating, Surinam Grass [4, 14]: 25 | Plant response rating, Surinam Grass [4, 15]: 45 | Plant response rating, Surinam Grass [4, 16]: 10 | Plant response rating, Surinam Grass [4, 20]: 50 | Plant response rating, Surinam Grass [4, 18]: 65 | Plant response rating, Surinam Grass [4, 19]: 90 | Plant response rating, Cupgrass, Woolly [5, 12]: 25 | Plant response rating, Cupgrass, Woolly [5, 13]: 40 | Plant response rating, Cupgrass, Woolly [5, 14]: 45 | Plant response rating, Cupgrass, Woolly [5, 15]: 55 | Plant response rating, Cupgrass, Woolly [5, 16]: 10 | Plant response rating, Cupgrass, Woolly [5, 20]: 65 | Plant response rating, Cupgrass, Woolly [5, 18]: 70 | Plant response rating, Cupgrass, Woolly [5, 19]: 90 | Plant response rating, Goosegrass [6, 12]: 25 | Plant response rating, Goosegrass [6, 13]: 30 | Plant response rating, Goosegrass [6, 14]: 40 | Plant response rating, Goosegrass [6, 15]: 70 | Plant response rating, Goosegrass [6, 16]: 95 | Plant response rating, Goosegrass [6, 20]: 100 | Plant response rating, Goosegrass [6, 18]: 100 | Plant response rating, Goosegrass [6, 19]: 100 | Plant response rating, Nightshade [7, 21]: 55 | Plant response rating, Nightshade [7, 22]: 90 | Plant response rating, Nightshade [7, 23]: 98 | Plant response rating, Nightshade [7, 24]: 98 | Plant response rating, Sunflower [8, 21]: 0 | Plant response rating, Sunflower [8, 23]: 10 | Plant response rating, Sunflower [8, 24]: 15 | Plant response rating, Canarygrass [9, 25]: 40 | Plant response rating, Canarygrass [9, 26]: 45 | Plant response rating, Canarygrass [9, 23]: 90 | Plant response rating, Canarygrass ([9]; 250 g ai/ha, scale 0 to 100): 90 | Plant response rating, Windgrass [10, 25]: 40 | Plant response rating, Windgrass [10, 26]: 55 | Plant response rating, Windgrass [10, 23]: 80 | Plant response rating, Windgrass ([10]; 250 g ai/ha, scale 0 to 100): 80 | Plant response rating, Deadnettle [11, 25]: 98 | Plant response rating, Deadnettle [11, 26]: 98 | Plant response rating, Deadnettle [11, 23]: 98 | Plant response rating, Deadnettle ([11]; 250 g ai/ha, scale 0 to 100): 100
